Experimental data: paper PMC5564600 (Oncotarget, 2017)
Like-named read-outs stand apart in the source and are kept apart here.

Tests used:
Assay type in all cases: binding
panel of 442 kinases [1] = molecular target: T1, panel of 442 kinases (Homo sapiens, UniProt Q9UQ88); assay: biochemical; details: CDC2L2; for remaining activity at 1 µM: read-out: % of control at 1 µM
T1 construct: purchased Ambit Biosciences (scanMAXX KINOMEscan)
T1 sequence (Q9UQ88 1-783): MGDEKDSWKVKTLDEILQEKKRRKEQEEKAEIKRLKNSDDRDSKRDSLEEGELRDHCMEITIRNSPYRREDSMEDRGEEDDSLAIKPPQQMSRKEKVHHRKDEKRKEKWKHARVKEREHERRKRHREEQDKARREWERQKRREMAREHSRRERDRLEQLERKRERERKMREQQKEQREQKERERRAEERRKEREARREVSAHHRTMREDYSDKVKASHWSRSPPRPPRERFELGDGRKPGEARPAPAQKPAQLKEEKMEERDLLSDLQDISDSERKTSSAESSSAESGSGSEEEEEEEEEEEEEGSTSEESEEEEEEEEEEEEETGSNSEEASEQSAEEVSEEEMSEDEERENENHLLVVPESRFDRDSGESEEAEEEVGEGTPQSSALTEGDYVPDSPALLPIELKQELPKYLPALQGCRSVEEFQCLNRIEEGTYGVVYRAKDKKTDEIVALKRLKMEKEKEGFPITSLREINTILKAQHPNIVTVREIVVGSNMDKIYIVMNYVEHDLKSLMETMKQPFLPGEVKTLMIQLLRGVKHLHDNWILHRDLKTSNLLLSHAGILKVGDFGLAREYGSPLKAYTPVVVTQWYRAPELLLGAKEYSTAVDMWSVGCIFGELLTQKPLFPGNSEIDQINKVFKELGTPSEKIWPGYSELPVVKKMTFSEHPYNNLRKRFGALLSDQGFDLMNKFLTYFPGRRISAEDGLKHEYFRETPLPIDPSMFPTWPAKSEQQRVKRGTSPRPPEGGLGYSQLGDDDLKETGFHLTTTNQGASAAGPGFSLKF

panel of 442 kinases [2] = molecular target: T2, panel of 442 kinases (Homo sapiens, UniProt Q2M2I8); assay: biochemical; details: AAK1; for remaining activity at 1 µM: read-out: % of control at 1 µM
T2 construct: purchased Ambit Biosciences (scanMAXX KINOMEscan)

panel of 442 kinases [3] = molecular target: T3, panel of 442 kinases (Homo sapiens, UniProt Q13043); assay: biochemical; details: kinase MST1; for remaining activity at 1 µM: read-out: % of control at 1 µM
T3 construct: purchased Ambit Biosciences (scanMAXX KINOMEscan)
T3 sequence (Q13043 1-487): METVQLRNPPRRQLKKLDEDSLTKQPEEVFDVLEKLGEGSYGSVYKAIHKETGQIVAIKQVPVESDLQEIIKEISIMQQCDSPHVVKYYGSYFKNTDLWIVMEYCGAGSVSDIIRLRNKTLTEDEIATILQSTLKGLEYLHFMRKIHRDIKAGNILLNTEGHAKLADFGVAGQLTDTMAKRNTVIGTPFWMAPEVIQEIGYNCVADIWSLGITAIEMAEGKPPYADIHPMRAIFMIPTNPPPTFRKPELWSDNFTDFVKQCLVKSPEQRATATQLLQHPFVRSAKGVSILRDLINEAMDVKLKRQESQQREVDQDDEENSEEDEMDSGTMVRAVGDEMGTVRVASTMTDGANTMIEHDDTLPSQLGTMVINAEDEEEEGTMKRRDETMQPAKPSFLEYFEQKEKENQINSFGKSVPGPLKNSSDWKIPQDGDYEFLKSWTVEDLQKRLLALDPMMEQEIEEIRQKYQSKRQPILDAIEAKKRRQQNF

panel of 442 kinases [4] = molecular target: T4, panel of 442 kinases (Homo sapiens, UniProt P00533, L858R/T790M); assay: biochemical; details: EGFR(L858R,T790M); for remaining activity at 1 µM: read-out: % of control at 1 µM
T4 construct: purchased Ambit Biosciences (scanMAXX KINOMEscan)
T4 sequence (P00533 25-1210 T790M/L858R): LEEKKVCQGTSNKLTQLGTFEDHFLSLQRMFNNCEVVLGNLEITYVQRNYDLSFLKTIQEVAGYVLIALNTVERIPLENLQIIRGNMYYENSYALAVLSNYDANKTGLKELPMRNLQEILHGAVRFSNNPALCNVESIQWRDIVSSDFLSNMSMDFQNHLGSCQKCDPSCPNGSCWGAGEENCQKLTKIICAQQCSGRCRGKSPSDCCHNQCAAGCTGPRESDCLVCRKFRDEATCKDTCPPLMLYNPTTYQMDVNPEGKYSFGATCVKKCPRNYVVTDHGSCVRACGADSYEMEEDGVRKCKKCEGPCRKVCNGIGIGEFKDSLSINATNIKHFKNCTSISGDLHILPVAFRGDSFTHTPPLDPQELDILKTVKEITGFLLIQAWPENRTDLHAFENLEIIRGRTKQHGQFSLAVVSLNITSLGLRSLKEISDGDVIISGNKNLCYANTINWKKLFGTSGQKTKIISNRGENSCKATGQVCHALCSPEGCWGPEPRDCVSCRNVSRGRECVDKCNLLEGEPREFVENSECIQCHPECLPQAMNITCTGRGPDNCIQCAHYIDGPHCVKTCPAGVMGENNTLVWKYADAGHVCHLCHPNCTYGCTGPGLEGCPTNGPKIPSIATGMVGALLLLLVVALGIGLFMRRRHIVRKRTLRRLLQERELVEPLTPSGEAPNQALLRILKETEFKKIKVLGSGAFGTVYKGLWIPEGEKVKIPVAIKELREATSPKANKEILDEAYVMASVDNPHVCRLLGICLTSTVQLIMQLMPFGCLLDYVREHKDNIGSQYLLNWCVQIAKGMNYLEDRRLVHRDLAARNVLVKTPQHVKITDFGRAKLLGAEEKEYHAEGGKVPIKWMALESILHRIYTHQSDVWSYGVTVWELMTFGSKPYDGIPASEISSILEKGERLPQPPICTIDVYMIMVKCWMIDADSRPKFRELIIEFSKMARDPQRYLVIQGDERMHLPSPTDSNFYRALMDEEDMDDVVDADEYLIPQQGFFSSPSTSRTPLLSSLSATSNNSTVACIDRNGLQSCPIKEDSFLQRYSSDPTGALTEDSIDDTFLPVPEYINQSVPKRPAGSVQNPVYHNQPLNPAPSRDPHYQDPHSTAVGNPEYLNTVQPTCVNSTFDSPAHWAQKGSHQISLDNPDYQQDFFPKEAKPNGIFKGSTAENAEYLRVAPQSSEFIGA

panel of 442 kinases [5] = molecular target: T5, panel of 442 kinases (Homo sapiens, UniProt Q9Y616); assay: biochemical; details: kinase IRAK3; for remaining activity at 1 µM: read-out: % of control at 1 µM
T5 construct: purchased Ambit Biosciences (scanMAXX KINOMEscan)
T5 sequence (Q9Y616 1-596): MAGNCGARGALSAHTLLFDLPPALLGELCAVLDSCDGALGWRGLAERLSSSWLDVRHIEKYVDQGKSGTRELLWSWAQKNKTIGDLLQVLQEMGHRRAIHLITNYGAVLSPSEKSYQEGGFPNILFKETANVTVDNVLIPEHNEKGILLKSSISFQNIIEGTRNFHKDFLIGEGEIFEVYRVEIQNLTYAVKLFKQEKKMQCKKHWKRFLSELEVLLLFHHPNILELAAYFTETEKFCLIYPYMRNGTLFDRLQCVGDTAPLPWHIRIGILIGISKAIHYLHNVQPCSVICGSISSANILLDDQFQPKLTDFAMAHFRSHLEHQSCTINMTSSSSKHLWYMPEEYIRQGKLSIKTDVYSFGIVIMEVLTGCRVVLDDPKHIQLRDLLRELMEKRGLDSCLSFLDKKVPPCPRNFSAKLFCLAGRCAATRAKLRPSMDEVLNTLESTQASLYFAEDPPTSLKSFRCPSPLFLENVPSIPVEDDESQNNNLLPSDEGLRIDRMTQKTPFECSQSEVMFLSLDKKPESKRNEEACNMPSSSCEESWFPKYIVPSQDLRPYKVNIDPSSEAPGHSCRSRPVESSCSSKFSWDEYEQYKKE

panel of 442 kinases [6] = molecular target: T6, panel of 442 kinases (Homo sapiens, UniProt Q9UQM7); assay: biochemical; details: CAMK2A; for remaining activity at 1 µM: read-out: % of control at 1 µM
T6 construct: purchased Ambit Biosciences (scanMAXX KINOMEscan)
T6 sequence (Q9UQM7 whole entry): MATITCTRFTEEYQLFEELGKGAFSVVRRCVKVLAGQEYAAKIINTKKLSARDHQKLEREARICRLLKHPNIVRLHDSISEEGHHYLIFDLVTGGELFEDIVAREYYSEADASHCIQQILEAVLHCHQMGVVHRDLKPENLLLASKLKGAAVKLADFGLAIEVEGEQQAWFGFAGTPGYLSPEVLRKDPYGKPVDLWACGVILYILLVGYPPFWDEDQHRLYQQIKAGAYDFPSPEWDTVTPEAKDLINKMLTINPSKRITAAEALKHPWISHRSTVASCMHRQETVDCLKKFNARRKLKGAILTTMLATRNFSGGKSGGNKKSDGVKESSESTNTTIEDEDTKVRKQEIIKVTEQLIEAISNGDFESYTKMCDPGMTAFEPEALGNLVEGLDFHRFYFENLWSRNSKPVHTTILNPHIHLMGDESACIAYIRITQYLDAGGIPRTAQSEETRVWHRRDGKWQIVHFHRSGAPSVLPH

PIK3C2B = molecular target: T7, PIK3C2B (Homo sapiens, UniProt O00750); assay: KINOMEscan, PIK3C2B; details: for remaining binding at 1 µM / remaining binding at 10 µM: kinase PIK3C2B; for remaining binding at 1 µM: read-out: % of control at 1 µM; for remaining binding at 10 µM: read-out: % of control at 10 µM
T7 construct: purchased Ambit Biosciences (scanMAXX KINOMEscan)
T7 sequence (O00750 whole entry): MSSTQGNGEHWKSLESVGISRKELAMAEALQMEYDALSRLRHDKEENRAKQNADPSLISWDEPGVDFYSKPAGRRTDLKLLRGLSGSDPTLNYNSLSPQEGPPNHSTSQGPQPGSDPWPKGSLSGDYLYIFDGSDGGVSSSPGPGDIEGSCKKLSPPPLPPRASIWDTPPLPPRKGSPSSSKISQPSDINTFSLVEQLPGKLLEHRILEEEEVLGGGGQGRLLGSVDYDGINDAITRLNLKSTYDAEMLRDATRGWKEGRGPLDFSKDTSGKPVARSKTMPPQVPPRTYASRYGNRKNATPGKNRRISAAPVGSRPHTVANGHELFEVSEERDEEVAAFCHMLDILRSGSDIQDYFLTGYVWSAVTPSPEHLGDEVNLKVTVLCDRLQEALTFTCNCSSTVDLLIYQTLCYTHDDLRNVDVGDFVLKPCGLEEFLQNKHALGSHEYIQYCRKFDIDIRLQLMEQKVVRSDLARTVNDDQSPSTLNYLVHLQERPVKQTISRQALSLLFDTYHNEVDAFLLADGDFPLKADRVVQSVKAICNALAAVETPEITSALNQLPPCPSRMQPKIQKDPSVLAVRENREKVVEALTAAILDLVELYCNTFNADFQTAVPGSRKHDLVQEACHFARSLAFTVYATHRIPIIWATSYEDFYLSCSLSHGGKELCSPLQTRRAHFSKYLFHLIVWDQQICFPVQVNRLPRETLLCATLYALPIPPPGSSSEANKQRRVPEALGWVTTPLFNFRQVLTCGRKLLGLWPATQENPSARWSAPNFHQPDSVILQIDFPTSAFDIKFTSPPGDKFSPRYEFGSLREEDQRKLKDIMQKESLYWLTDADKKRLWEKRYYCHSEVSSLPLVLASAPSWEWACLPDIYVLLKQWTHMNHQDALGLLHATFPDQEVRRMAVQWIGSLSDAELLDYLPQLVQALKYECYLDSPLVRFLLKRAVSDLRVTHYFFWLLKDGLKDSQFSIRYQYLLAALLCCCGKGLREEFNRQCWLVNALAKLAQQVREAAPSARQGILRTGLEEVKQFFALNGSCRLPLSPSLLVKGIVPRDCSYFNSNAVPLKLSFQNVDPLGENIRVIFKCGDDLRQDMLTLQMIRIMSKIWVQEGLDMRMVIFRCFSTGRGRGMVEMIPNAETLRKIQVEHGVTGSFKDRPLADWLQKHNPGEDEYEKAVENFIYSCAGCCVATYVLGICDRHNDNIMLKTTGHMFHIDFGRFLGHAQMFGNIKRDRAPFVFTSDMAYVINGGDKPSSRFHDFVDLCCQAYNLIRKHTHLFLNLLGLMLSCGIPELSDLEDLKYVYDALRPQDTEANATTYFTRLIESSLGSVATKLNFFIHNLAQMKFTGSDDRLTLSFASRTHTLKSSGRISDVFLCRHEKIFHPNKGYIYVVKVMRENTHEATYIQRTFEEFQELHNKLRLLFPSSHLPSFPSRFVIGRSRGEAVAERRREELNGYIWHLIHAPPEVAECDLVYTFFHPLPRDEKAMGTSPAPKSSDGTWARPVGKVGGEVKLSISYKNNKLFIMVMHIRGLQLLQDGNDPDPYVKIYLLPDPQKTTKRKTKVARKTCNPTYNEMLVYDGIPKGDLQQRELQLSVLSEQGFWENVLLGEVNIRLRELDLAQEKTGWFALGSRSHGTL

PIK4CB = molecular target: T8, PIK4CB (Homo sapiens, UniProt Q9UBF8); assay: KINOMEscan, PIK4CB; details: for remaining binding at 1 µM: read-out: % of control at 1 µM; for remaining binding at 10 µM: read-out: % of control at 10 µM
T8 construct: purchased Ambit Biosciences (scanMAXX KINOMEscan)
T8 sequence (Q9UBF8 whole entry): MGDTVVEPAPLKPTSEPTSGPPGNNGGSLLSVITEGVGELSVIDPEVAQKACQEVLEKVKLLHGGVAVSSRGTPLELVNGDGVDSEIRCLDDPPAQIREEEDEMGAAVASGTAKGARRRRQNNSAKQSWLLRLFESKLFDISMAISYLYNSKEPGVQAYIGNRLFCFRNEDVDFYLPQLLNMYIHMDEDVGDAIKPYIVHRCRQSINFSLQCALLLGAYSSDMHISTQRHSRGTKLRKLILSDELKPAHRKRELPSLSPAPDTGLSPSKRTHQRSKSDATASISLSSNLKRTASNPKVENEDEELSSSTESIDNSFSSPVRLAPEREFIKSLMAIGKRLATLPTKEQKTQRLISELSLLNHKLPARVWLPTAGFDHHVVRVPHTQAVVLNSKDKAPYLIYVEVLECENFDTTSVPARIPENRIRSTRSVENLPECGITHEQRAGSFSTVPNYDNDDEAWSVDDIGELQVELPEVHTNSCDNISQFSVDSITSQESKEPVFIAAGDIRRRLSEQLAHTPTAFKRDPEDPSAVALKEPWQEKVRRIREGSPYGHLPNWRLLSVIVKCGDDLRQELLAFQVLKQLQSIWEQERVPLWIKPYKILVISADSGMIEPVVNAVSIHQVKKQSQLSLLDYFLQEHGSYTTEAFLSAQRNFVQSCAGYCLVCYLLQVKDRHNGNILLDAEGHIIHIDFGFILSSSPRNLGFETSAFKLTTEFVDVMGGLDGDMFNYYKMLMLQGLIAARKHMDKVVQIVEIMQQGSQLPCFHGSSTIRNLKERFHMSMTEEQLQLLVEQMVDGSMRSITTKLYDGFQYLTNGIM

[7] = molecular target: T9, catalytic JH1 domain of JAK2 (Homo sapiens, UniProt O60674); assay: KINOMEscan, JAK2 JH1 domain; details: for remaining binding at 1 µM / remaining binding at 10 µM: kinase JAK2(JH1domain-catalytic); for remaining binding at 1 µM: read-out: % of control at 1 µM; for remaining binding at 10 µM: read-out: % of control at 10 µM
T9 construct: the catalytic JH1 domains of JAK1 and JAK2; purchased Ambit Biosciences (scanMAXX KINOMEscan)
T9 sequence (O60674 849-1124 limits assumed): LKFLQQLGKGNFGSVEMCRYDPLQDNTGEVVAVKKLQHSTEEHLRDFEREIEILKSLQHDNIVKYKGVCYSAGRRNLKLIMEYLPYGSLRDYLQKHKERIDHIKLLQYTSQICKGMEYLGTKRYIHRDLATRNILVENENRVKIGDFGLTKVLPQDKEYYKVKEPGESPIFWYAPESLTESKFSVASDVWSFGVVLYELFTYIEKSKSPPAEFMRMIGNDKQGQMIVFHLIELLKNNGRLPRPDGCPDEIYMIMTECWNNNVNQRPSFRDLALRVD

[8] = 10 µM, read-out: % of control at 10 µM

Compound | remaining activity at 1 µM (panel of 442 kinases [1]) [%] | remaining activity at 1 µM (panel of 442 kinases [2]) [%] | remaining activity at 1 µM (panel of 442 kinases [3]) [%] | remaining activity at 1 µM (panel of 442 kinases [4]) [%] | remaining activity at 1 µM (panel of 442 kinases [5]) [%] | remaining activity at 1 µM (panel of 442 kinases [6]) [%] | remaining binding at 1 µM (PIK3C2B) [%] | remaining binding at 10 µM (PIK3C2B) [%] | remaining binding at 1 µM (PIK4CB; kinase PIK4CB, 1 µM) [%] | remaining binding at 10 µM (PIK4CB; kinase PIK4CB) [%] | remaining binding at 1 µM [7] [%] | remaining binding at 10 µM [7] [%] | off-target binding to PIK3C2B (PIK3C2B; 1 μM) | other results
Nc1cc(C(F)(F)F)c(-c2cc(N3CCOCC3)nc(N3CCOCC3)n2)cn1 [Buparlisib] | 100 | 97 | 95 | 100 | 95 | 100 | 97 | 100 | 86 | 100 | 63 | 79 |  | remaining activity at 10 µM (panel of 442 kinases [1]; [8]): 99%; remaining activity at 10 µM (panel of 442 kinases [2]; [8]): 100%; remaining activity at 10 µM (panel of 442 kinases [3]; [8]): 100%; remaining activity at 10 µM (panel of 442 kinases [4]; [8]): 100%; remaining activity at 10 µM (panel of 442 kinases [5]; [8]): 96%; remaining activity at 10 µM (panel of 442 kinases [6]; [8]): 100%
Cn1c(=O)n(-c2ccc(C(C)(C)C#N)cc2)c2c3cc(-c4cnc5ccccc5c4)ccc3ncc21 [Dactolisib, 2-methyl-2-[4-(3-methyl-2-oxo-8-quinolin-3-yl-2,3-dihydroimidazo[4,5-c]quinolin-1-yl)-phenyl] propionitrile] | 89 | 84 | 66 | 100 | 50 | 90 | 9.9 |  |  |  | 8.2 |  |  | inhibition at 1 µM (PIK3C2B; 1 μM): > 80%; remaining binding at 1 µM (PIK4CB): 64%; inhibition at 1 µM ([7]; 1 μM): > 80%
COc1ncc(-c2ccc3nccc(-c4ccnnc4)c3c2)cc1NS(=O)(=O)c1ccc(F)cc1F [Omipalisib] | 100 | 66 | 100 | 100 | 26 | 100 | 0 |  | 0.7 |  | 90 |  | non-selective | off-target binding to PIK4CB (PIK4CB; 1 μM): non-selective
CS(=O)(=O)N1CCN(Cc2cc3nc(-c4cccc5[nH]ncc45)nc(N4CCOCC4)c3s2)CC1 [Pictilisib, 2-(1H-indazol-4-yl)-6-(4-methanesulfonyl-piperazin-1-ylmethyl)-4-morpholin-4-yl-t hieno[3,2-d]pyrimidine] |  |  |  |  |  |  | 54 | 0.45 | 100 | 75 | 100 | 26 |  | off-target activity against PIK3C2B (PIK3C2B; 10 μM): active
FC(F)c1nc2ccccc2n1-c1nc(N2CCOCC2)nc(N2CCOCC2)n1 [ZSTK474, 2-(difluoromethyl)-1-[4,6-di(4-morpholinyl)-1,3,5-triazin-2-yl]-1H-benzimidazole] | 100 | 100 | 53 | 100 | 100 | 87 | 0.85 |  | 84 |  | 100 |  | high binding affinity | 
